Reference: ChEMBL document CHEMBL3046907, “Microwave-assisted synthesis of pyrido[1,2-a]benzimidazole derivatives of -aryloxyquinoline and their antimicrobial and antituberculosis activities” (2013)
Values after ≈ are worked out from the molar mass of the structure shown.

Tests used:
Format in all cases: functional
Vibrio cholerae = assay: Antibacterial activity against Vibrio cholerae MTCC 3906 after overnight incubation by broth microdilution method
Aspergillus fumigatus = assay: Antifungal activity against Aspergillus fumigatus MTCC 3008 after overnight incubation by broth microdilution method
Clostridium tetani = assay: Antibacterial activity against Clostridium tetani MTCC 449 after overnight incubation by broth microdilution method
Streptococcus pneumoniae = assay: Antibacterial activity against Streptococcus pneumoniae MTCC 1936 after overnight incubation by broth microdilution method
Bacillus subtilis = assay: Antibacterial activity against Bacillus subtilis MTCC 441 after overnight incubation by broth microdilution method
Salmonella typhi = assay: Antibacterial activity against Salmonella enterica subsp. enterica serovar Typhi MTCC 98 after overnight incubation by broth microdilution method
[1] = system: Mycobacterium tuberculosis; assay: Growth inhibition of Mycobacterium tuberculosis H37Rv at 6.25 ug/ml after 28 days by Lowenstein-Jensen method; details: 672 h, read-out: GI
Candida albicans = assay: Antifungal activity against Candida albicans MTCC 227 after overnight incubation by broth microdilution method
Escherichia coli = assay: Antibacterial activity against Escherichia coli MTCC 443 after overnight incubation by broth microdilution method
[2] = system: Mycobacterium tuberculosis; assay: Antitubercular activity against Mycobacterium tuberculosis H37Rv after 28 days by Lowenstein-Jensen method; details: 672 h

Compound | MIC99 (Vibrio cholerae) [µg/mL] | MIC99 (Aspergillus fumigatus) [µg/mL] | MIC99 (Clostridium tetani) [µg/mL] | MIC99 (Streptococcus pneumoniae) [µg/mL] | MIC99 (Bacillus subtilis) [µg/mL] | MIC99 (Salmonella typhi) [µg/mL] | inhibition of growth at 6.25 µg/mL [1] [%] | MIC99 (Candida albicans) [µg/mL] | MIC99 (Escherichia coli) [µg/mL] | MIC [2] [µg/mL]
Cc1ccc(Oc2nc3ccccc3cc2-c2c(C#N)c(N)n3c(nc4cc(C)ccc43)c2C#N)cc1 | 200 (≈ 416 µM) | 1000 (≈ 2080 µM) | 62.5 (≈ 130 µM) | 200 (≈ 416 µM) | 250 (≈ 520 µM) | 200 (≈ 416 µM) | 12 | 500 (≈ 1040 µM) | 62.5 (≈ 130 µM) | 
COc1ccc2nc(Oc3ccc(C)cc3)c(-c3c(C#N)c(N)n4c(nc5cc(C)ccc54)c3C#N)cc2c1 | 125 (≈ 245 µM) | > 1000 | 200 (≈ 392 µM) | 100 (≈ 196 µM) | 125 (≈ 245 µM) | 100 (≈ 196 µM) | 10 | 1000 (≈ 1960 µM) | 200 (≈ 392 µM) | 
COc1ccc(Oc2nc3ccc(OC)cc3cc2-c2c(C#N)c(N)n3c(nc4cc(C)ccc43)c2C#N)cc1 | 125 (≈ 237 µM) | > 1000 | 200 (≈ 380 µM) | 200 (≈ 380 µM) | 100 (≈ 190 µM) | 250 (≈ 475 µM) | 70 | 500 (≈ 950 µM) | 200 (≈ 380 µM) | 
COc1ccc2nc(Oc3ccc(F)cc3)c(-c3c(C#N)c(N)n4c(nc5cc(C)ccc54)c3C#N)cc2c1 | 200 (≈ 389 µM) | 1000 (≈ 1940 µM) | 100 (≈ 194 µM) | 100 (≈ 194 µM) | 250 (≈ 486 µM) | 200 (≈ 389 µM) | 96 | 500 (≈ 972 µM) | 100 (≈ 194 µM) | 12.5 (≈ 24.3 µM)
Cc1ccc(Oc2nc3ccccc3cc2-c2c(C#N)c(N)n3c(nc4ccccc43)c2C#N)cc1 | 100 (≈ 214 µM) | 250 (≈ 536 µM) | 250 (≈ 536 µM) | 125 (≈ 268 µM) | 250 (≈ 536 µM) | 100 (≈ 214 µM) | 52 | > 1000 | 100 (≈ 214 µM) | 
COc1ccc(Oc2nc3ccccc3cc2-c2c(C#N)c(N)n3c(nc4ccccc43)c2C#N)cc1 | 125 (≈ 259 µM) | 500 (≈ 1040 µM) | 250 (≈ 518 µM) | 200 (≈ 415 µM) | 250 (≈ 518 µM) | 200 (≈ 415 µM) | 24 | 250 (≈ 518 µM) | 125 (≈ 259 µM) | 
N#Cc1c(-c2cc3ccccc3nc2Oc2ccc(F)cc2)c(C#N)c2nc3ccccc3n2c1N | 250 (≈ 531 µM) | 500 (≈ 1060 µM) | 200 (≈ 425 µM) | 125 (≈ 266 µM) | 250 (≈ 531 µM) | 250 (≈ 531 µM) | 75 | 500 (≈ 1060 µM) | 200 (≈ 425 µM) | 
Cc1ccc2nc(Oc3ccccc3)c(-c3c(C#N)c(N)n4c(nc5ccccc54)c3C#N)cc2c1 | 200 (≈ 429 µM) | 1000 (≈ 2140 µM) | 250 (≈ 536 µM) | 200 (≈ 429 µM) | 200 (≈ 429 µM) | 100 (≈ 214 µM) | 19 | 250 (≈ 536 µM) | 62.5 (≈ 134 µM) | 
Cc1ccc(Oc2nc3ccc(C)cc3cc2-c2c(C#N)c(N)n3c(nc4ccccc43)c2C#N)cc1 | 100 (≈ 208 µM) | > 1000 | 500 (≈ 1040 µM) | 250 (≈ 520 µM) | 100 (≈ 208 µM) | 125 (≈ 260 µM) | 32 | 1000 (≈ 2080 µM) | 100 (≈ 208 µM) | 
COc1ccc(Oc2nc3ccc(C)cc3cc2-c2c(C#N)c(N)n3c(nc4ccccc43)c2C#N)cc1 | 200 (≈ 403 µM) | > 1000 | 500 (≈ 1010 µM) | 100 (≈ 201 µM) | 125 (≈ 252 µM) | 200 (≈ 403 µM) | 62 | 1000 (≈ 2010 µM) | 250 (≈ 503 µM) | 
Cc1ccc2nc(Oc3ccc(F)cc3)c(-c3c(C#N)c(N)n4c(nc5ccccc54)c3C#N)cc2c1 | 250 (≈ 516 µM) | 500 (≈ 1030 µM) | 250 (≈ 516 µM) | 200 (≈ 413 µM) | 250 (≈ 516 µM) | 250 (≈ 516 µM) | 94 | 250 (≈ 516 µM) | 200 (≈ 413 µM) | 25 (≈ 51.6 µM)
COc1ccc2nc(Oc3ccccc3)c(-c3c(C#N)c(N)n4c(nc5ccccc54)c3C#N)cc2c1 | 200 (≈ 415 µM) | 1000 (≈ 2070 µM) | 100 (≈ 207 µM) | 250 (≈ 518 µM) | 250 (≈ 518 µM) | 200 (≈ 415 µM) | 46 | 500 (≈ 1040 µM) | 250 (≈ 518 µM) | 
COc1ccc2nc(Oc3ccc(C)cc3)c(-c3c(C#N)c(N)n4c(nc5ccccc54)c3C#N)cc2c1 | 250 (≈ 503 µM) | > 1000 | 125 (≈ 252 µM) | 500 (≈ 1010 µM) | 200 (≈ 403 µM) | 250 (≈ 503 µM) | 58 | 500 (≈ 1010 µM) | 125 (≈ 252 µM) | 
COc1ccc(Oc2nc3ccc(OC)cc3cc2-c2c(C#N)c(N)n3c(nc4ccccc43)c2C#N)cc1 | 125 (≈ 244 µM) | 250 (≈ 488 µM) | 200 (≈ 390 µM) | 500 (≈ 976 µM) | 250 (≈ 488 µM) | 200 (≈ 390 µM) | 79 | > 1000 | 125 (≈ 244 µM) | 
COc1ccc2nc(Oc3ccc(F)cc3)c(-c3c(C#N)c(N)n4c(nc5ccccc54)c3C#N)cc2c1 | 200 (≈ 400 µM) | 500 (≈ 999 µM) | 200 (≈ 400 µM) | 500 (≈ 999 µM) | 200 (≈ 400 µM) | 500 (≈ 999 µM) | 86 | > 1000 | 200 (≈ 400 µM) | 
